Consider one substance from patent publication US20220347144A1, “COMPOSITIONS AND METHODS FOR PREVENTING AND/OR REDUCING WEIGHT GAIN AND ASSOCIATED CONDITIONS” (University of Virginia Patent Foundation, priority 2019, published 2022).

Common to all, as to type: in vivo, mouse
The test system of data set [1] is PPARα. As to the kind of experiment: Liver transcript analysis by qRT-PCR. To be noted: HFD+NA. Here is the method: (§1) Transcript analysis. RNA was isolated from mouse liver by manual homogenization in TRIzol reagent (Invitrogen, Carlsbad, Calif., United States of America) following the manufacturer's instructions. Total RNA underwent DNase I treatment (New England Biolabs, Ipswich, Mass., United States of America) and cDNA was made using the ISCRIPT™ brand cDNA Synthesis Kit (Bio-Rad Laboratories, Hercules, Calif., United States of America). Quantitative real-time PCR was carried out using Bio-Rad SYBR® green probes (PPARα Bio-Rad Assay ID qMmuCID0005156; SIRT1 Bio-Rad Assay ID qMmuCID0015511; PGC1α Bio-Rad Assay ID qMmuCID0006032). The TATA binding protein (Bio-Rad Assay ID qMmuCID0040542) gene was used to normalize target gene abundance. Biological samples were run in triplicate.
In general terms: Quantitative PCR measures a nucleic acid by following its amplification.

In data set [2] the test system is PGC1α. As to the kind of experiment: Liver transcript analysis by qRT-PCR. To be noted: HFD+NA. Here is the method:
as §1

Data set [3] concerns SIRT1. Put plainly: Liver transcript analysis by qRT-PCR. Particulars: HFD+NA. The method, then:
as §1

Data set [4] relates to C57Bl/6J mice. As to the kind of experiment: Observation of overt toxicities in animals fed a NA-enriched diet.

As to (Z)-tetracos-15-enoic acid [NA], in data set [1], the “PPARα mRNA levels in liver” value is recorded as “increased”. Moreover, the “PGC1α mRNA levels in liver” value in data set [2] was “restored”. For the same substance, the “SIRT1 mRNA levels in liver” value in data set [3] is given as “restored”. Further, in data set [4], the “overt toxicities (ruffled fur, anorexia, cachexia, skin tenting, skin ulcerations, diarrhea, death)” value is “No overt toxicities”.
